Assay results published in ChEMBL document CHEMBL1149524 (Bioorg Med Chem Lett, 2006).
≈ marks a conversion by molar mass, not a printed value.

Biological target: T1, Cathepsin K (Homo sapiens, UniProt P43235)
T1 sequence (P43235 whole entry): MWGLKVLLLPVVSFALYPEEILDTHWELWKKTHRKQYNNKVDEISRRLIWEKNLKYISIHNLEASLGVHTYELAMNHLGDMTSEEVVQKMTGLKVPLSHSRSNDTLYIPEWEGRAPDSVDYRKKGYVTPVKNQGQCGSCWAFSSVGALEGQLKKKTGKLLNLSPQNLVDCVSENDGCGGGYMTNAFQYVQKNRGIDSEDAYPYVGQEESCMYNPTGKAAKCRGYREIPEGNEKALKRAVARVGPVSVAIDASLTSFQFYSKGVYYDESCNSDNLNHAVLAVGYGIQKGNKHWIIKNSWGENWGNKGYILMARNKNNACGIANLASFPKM
Assay: Inhibition of cathepsin K
Format: single protein
Details: not given

SMILES	Ki
C[C@@H](CNc1ccc(OC(F)(F)F)cc1)NC(=O)[C@H](CC1CCCCC1)NC(=O)N1CCOCC1	1660 nM
C[C@@H](CNc1ccc(OC(F)(F)F)cc1)NC(=O)[C@H](CC1CCCCC1)NC(=O)C1CCOC1 (stereo partly drawn)	> 30000 nM
CS(=O)(=O)CC[C@@H](CNc1ccc(OC(F)(F)F)cc1)NC(=O)[C@H](CC1CCCCC1)NC(=O)N1CCOCC1	139 nM
C[C@@H](CNc1ccc(OC(F)(F)F)cc1)NC(=O)[C@H](CC1CCCC1)NC(=O)N1CCOCC1	1540 nM
O=C(N[C@@H](CC1CCCCC1)C(=O)NCCNc1ccc(OC(F)(F)F)cc1)c1ccc(-c2cccc(C(F)(F)F)c2)o1	8580 nM
O=C(NCCNc1ccc(OC(F)(F)F)cc1)[C@H](Cc1ccccc1)NC(=O)N1CCOCC1	> 100000 nM
C[C@@H](CNc1ccc(OC(F)(F)F)cc1)NC(=O)[C@H](CC1CCCCC1)NC(=O)O[C@H]1CCOC1	> 30000 nM

More lines, now with the values ahead:

Ki	SMILES
461 nM	C[C@@H](CNc1ccc(OC(F)(F)F)cc1)NC(=O)[C@H](CC(C)(C)C)NC(=O)N1CCOCC1
8810 nM	O=C(N[C@@H](CC1CCCCC1)C(=O)NCCNc1ccc(OC(F)(F)F)cc1)c1ccco1
16900 nM	C[C@@H](CN1CC(C)(C)c2cc(F)ccc21)NC(=O)[C@H](CC1CCCCC1)NC(=O)N1CCOCC1
> 30000 nM	O=C(N[C@@H](CC1CCCCC1)C(=O)NCCNc1ccc(OC(F)(F)F)cc1)C1CCOC1 (stereo partly drawn)
150 nM	O=C(N[C@@H](CC1CCCCC1)C(=O)NCCNc1ccc(OC(F)(F)F)cc1)c1cc2ccccc2o1
13100 nM	C[C@@H](CN1c2ccc(F)cc2CC1(C)C)NC(=O)[C@H](CC1CCCCC1)NC(=O)N1CCOCC1

Tested on: not listed separately
Assay: AUC in Wistar rat at 10 mg/kg, po
Format: ADME, organism-based
Set-up: dose 10 mg/kg, route oral
Details: plasma

AUC	SMILES
50 ng·h/mL	COc1ccc(NCCNC(=O)[C@H](CC2CCCCC2)NC(=O)c2ccc(-c3cccc(C(F)(F)F)c3)o2)cc1
817 ng·h/mL	C[C@@H](CNc1ccc(OC(F)(F)F)cc1)NC(=O)[C@H](CC1CCCCC1)NC(=O)C1CCOC1 (stereo partly drawn)

Biological target: Cathepsin S (Homo sapiens, UniProt P25774)
Assay: Inhibition of cathepsin S
Format: single protein
Details: not given

Cathepsin S, sequence (P25774 whole entry): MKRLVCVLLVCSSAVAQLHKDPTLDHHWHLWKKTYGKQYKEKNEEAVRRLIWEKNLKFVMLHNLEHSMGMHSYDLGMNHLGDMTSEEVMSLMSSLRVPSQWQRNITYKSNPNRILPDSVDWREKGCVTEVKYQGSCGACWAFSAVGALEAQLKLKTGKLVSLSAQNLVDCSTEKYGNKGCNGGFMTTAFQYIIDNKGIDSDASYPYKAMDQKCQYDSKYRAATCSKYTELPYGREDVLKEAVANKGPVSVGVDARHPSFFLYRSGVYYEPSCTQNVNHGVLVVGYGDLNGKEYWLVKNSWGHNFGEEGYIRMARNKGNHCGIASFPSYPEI

SMILES	Ki
C[C@@H](CNc1ccc(OC(F)(F)F)cc1)NC(=O)[C@H](CC1CCCCC1)NC(=O)N1CCOCC1	11 nM
C[C@@H](CNc1ccc(OC(F)(F)F)cc1)NC(=O)[C@H](CC1CCCCC1)NC(=O)C1CCOC1 (stereo partly drawn)	21 nM
CS(=O)(=O)CC[C@@H](CNc1ccc(OC(F)(F)F)cc1)NC(=O)[C@H](CC1CCCCC1)NC(=O)N1CCOCC1	5 nM
C[C@@H](CNc1ccc(OC(F)(F)F)cc1)NC(=O)[C@H](CC1CCCC1)NC(=O)N1CCOCC1	49 nM
O=C(N[C@@H](CC1CCCCC1)C(=O)NCCNc1ccc(OC(F)(F)F)cc1)c1ccc(-c2cccc(C(F)(F)F)c2)o1	11 nM
O=C(NCCNc1ccc(OC(F)(F)F)cc1)[C@H](Cc1ccccc1)NC(=O)N1CCOCC1	11400 nM
C[C@@H](CNc1ccc(OC(F)(F)F)cc1)NC(=O)[C@H](CC1CCCCC1)NC(=O)O[C@H]1CCOC1	49 nM

Second part, the compound after the results:

Ki	SMILES
93 nM	C[C@@H](CNc1ccc(OC(F)(F)F)cc1)NC(=O)[C@H](CC(C)(C)C)NC(=O)N1CCOCC1
47 nM	O=C(N[C@@H](CC1CCCCC1)C(=O)NCCNc1ccc(OC(F)(F)F)cc1)c1ccco1
11 nM	C[C@@H](CN1CC(C)(C)c2cc(F)ccc21)NC(=O)[C@H](CC1CCCCC1)NC(=O)N1CCOCC1
213 nM	O=C(N[C@@H](CC1CCCCC1)C(=O)NCCNc1ccc(OC(F)(F)F)cc1)C1CCOC1 (stereo partly drawn)
17 nM	O=C(N[C@@H](CC1CCCCC1)C(=O)NCCNc1ccc(OC(F)(F)F)cc1)c1cc2ccccc2o1
111 nM	C[C@@H](CN1c2ccc(F)cc2CC1(C)C)NC(=O)[C@H](CC1CCCCC1)NC(=O)N1CCOCC1

Tested on: not listed separately
Assay: Solubility at pH 6.8
Format: physicochemical
Details: buffer

SMILES	solubility
COc1ccc(NCCNC(=O)[C@H](CC2CCCCC2)Nc2nc3ccccc3o2)cc1	10 µg/mL (≈ 22.9 µM)
C[C@@H](CNc1ccc(OC(F)(F)F)cc1)NC(=O)[C@H](CC1CCCCC1)NC(=O)C1CCOC1 (stereo partly drawn)	30 µg/mL (≈ 61.8 µM)

Results, then the compound that gave them:

solubility	SMILES
< 1 µg/mL	COc1ccc(NCCNC(=O)[C@H](CC2CCCCC2)NC(=O)c2ccc(-c3cccc(C(F)(F)F)c3)o2)cc1
10 µg/mL (≈ 20.5 µM)	C[C@@H](CN1CC(C)(C)c2cc(F)ccc21)NC(=O)[C@H](CC1CCCCC1)NC(=O)N1CCOCC1

Tested on: not listed separately
Assay: Bioavailability in Wistar rat at 10 mg/kg, po
Format: ADME, organism-based
Details: in vivo

bioavailability	SMILES
< 1%	COc1ccc(NCCNC(=O)[C@H](CC2CCCCC2)Nc2nc3ccccc3o2)cc1
19%	C[C@@H](CNc1ccc(OC(F)(F)F)cc1)NC(=O)[C@H](CC1CCCCC1)NC(=O)C1CCOC1 (stereo partly drawn)

Tested on: not listed separately
Assay: Volume of distribution in Wistar rat at 3 mg/kg, iv
Format: ADME, organism-based
Set-up: dose 3 mg/kg, route intravenous
Details: in vivo, read-out: Vdss

Vd	SMILES
2.48 L/kg	C[C@@H](CNc1ccc(OC(F)(F)F)cc1)NC(=O)[C@H](CC1CCCCC1)NC(=O)C1CCOC1 (stereo partly drawn)

Tested on: not listed separately
Assay: Half life in Wistar rat at 3 mg/kg, iv
Format: ADME, organism-based
Set-up: dose 3 mg/kg, route intravenous
Details: in vivo

half-life	SMILES
1.8 h	C[C@@H](CNc1ccc(OC(F)(F)F)cc1)NC(=O)[C@H](CC1CCCCC1)NC(=O)C1CCOC1 (stereo partly drawn)

Tested on: Liver microsomes
Assay: Stability in rat liver microsomes
Format: ADME, Microsome
Details: not given

SMILES	Stability
COc1ccc(NCCNC(=O)[C@H](CC2CCCCC2)Nc2nc3ccccc3o2)cc1	4%
C[C@@H](CNc1ccc(OC(F)(F)F)cc1)NC(=O)[C@H](CC1CCCCC1)NC(=O)C1CCOC1 (stereo partly drawn)	56%

Other lines, results leading:

Stability	SMILES
12%	COc1ccc(NCCNC(=O)[C@H](CC2CCCCC2)NC(=O)c2ccc(-c3cccc(C(F)(F)F)c3)o2)cc1
< 1%	C[C@@H](CN1CC(C)(C)c2cc(F)ccc21)NC(=O)[C@H](CC1CCCCC1)NC(=O)N1CCOCC1

Biological target: Procathepsin L (Homo sapiens, UniProt P07711)
Details: not given

Procathepsin L, sequence (P07711 whole entry): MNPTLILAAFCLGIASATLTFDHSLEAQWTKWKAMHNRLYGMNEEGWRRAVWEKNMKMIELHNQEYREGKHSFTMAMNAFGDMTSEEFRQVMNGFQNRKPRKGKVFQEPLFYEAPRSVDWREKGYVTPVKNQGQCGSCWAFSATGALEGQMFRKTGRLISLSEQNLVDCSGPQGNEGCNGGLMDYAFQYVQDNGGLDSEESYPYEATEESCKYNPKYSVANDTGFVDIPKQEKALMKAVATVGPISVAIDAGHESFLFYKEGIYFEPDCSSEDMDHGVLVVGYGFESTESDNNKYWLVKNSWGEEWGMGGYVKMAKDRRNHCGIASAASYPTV

SMILES	Ki
C[C@@H](CNc1ccc(OC(F)(F)F)cc1)NC(=O)[C@H](CC1CCCCC1)NC(=O)C1CCOC1 (stereo partly drawn)	4790 nM
CS(=O)(=O)CC[C@@H](CNc1ccc(OC(F)(F)F)cc1)NC(=O)[C@H](CC1CCCCC1)NC(=O)N1CCOCC1	4 nM
O=C(NCCNc1ccc(OC(F)(F)F)cc1)[C@H](Cc1ccccc1)NC(=O)N1CCOCC1	> 100000 nM
C[C@@H](CNc1ccc(OC(F)(F)F)cc1)NC(=O)[C@H](CC1CCCCC1)NC(=O)O[C@H]1CCOC1	594 nM

Next, values leading:

Ki	SMILES
14600 nM	C[C@@H](CNc1ccc(OC(F)(F)F)cc1)NC(=O)[C@H](CC(C)(C)C)NC(=O)N1CCOCC1
1150 nM	O=C(N[C@@H](CC1CCCCC1)C(=O)NCCNc1ccc(OC(F)(F)F)cc1)c1ccco1
810 nM	C[C@@H](CN1CC(C)(C)c2cc(F)ccc21)NC(=O)[C@H](CC1CCCCC1)NC(=O)N1CCOCC1
7940 nM	O=C(N[C@@H](CC1CCCCC1)C(=O)NCCNc1ccc(OC(F)(F)F)cc1)C1CCOC1 (stereo partly drawn)

Tested on: not listed separately
Assay: Cmax in Wistar rat at 10 mg/kg, po
Format: ADME, organism-based
Set-up: dose 10 mg/kg, route oral
Details: in vivo

Cmax	SMILES
19 nM	COc1ccc(NCCNC(=O)[C@H](CC2CCCCC2)NC(=O)c2ccc(-c3cccc(C(F)(F)F)c3)o2)cc1
491 nM	C[C@@H](CNc1ccc(OC(F)(F)F)cc1)NC(=O)[C@H](CC1CCCCC1)NC(=O)C1CCOC1 (stereo partly drawn)

Tested on: not listed separately
Assay: Half life in Wistar rat at 10 mg/kg, po
Format: ADME, organism-based
Set-up: dose 10 mg/kg, route oral
Details: in vivo

half-life	SMILES
2.43 h	COc1ccc(NCCNC(=O)[C@H](CC2CCCCC2)NC(=O)c2ccc(-c3cccc(C(F)(F)F)c3)o2)cc1
1.5 h	C[C@@H](CNc1ccc(OC(F)(F)F)cc1)NC(=O)[C@H](CC1CCCCC1)NC(=O)C1CCOC1 (stereo partly drawn)

Tested on: not listed separately
Assay: Clearance in Wistar rat at 3 mg/kg, iv
Format: ADME, organism-based
Set-up: dose 3 mg/kg, route intravenous
Details: in vivo

clearance	SMILES
39 mL/min/kg	C[C@@H](CNc1ccc(OC(F)(F)F)cc1)NC(=O)[C@H](CC1CCCCC1)NC(=O)C1CCOC1 (stereo partly drawn)
